Patent US11696903B2, “Compounds and methods for scavenging dicarbonyl electrophiles” (VANDERBILT UNIVERSITY, priority 2019, dated 2023)
Entries after “also recorded” stand apart in the source; their conditions may differ.

Key:
[1] = tested on: C57BL/6 mice in the AOM-DSS model; test: AOM-DSS model of colitis-associated carcinoma (tumors, dysplasia, body weight); format: in vivo
Procedure: FIGS. 5A, 5B, 5C, 5D, 5E, 5F, and 5G show mice (n=10-12/group)±AOM-DSS±1.5 mg/ml EtHOBA. (A) Body weight; ″P<0.05 compared to AOM-DSS-treated mice. (B) Tumor number. (C) Average tumor size per mouse. (D) Tumor burden. (E) Number of adenomas. (F) Frequency of diagnoses; ND, no dysplasia. (G) H&E staining; each arrow depicts a tumor. Scale bar, 50 μm.
Animals receive an i.p. injection of the carcinogen AOM (12.5 mg/kg) followed by 3 cycles of 4% DSS, each for 4 days, over a total of 56-77 days. To directly determine the role of electrophiles in colon carcinogenesis, the present inventors tested the effect of EtHOBA in C57BL/6 mice in the AOM-DSS model. Mice were given 1.5 mg/ml EtHOBA one day after AOM and continued throughout the experiments, except during the DSS cycles, to avoid mixing. The present inventors assessed electrophiles in colons of mice treated with AOM-DSS, by IHC for electrophile protein adducts. […] In total, without the scavenger treatment, 25% of mice had HGD and the remaining 75% had L GD; in contrast, in those receiving EtHOBA, 20% had no dysplasia, none had HGD, and 80% had only L GD, a significant overall difference in diagnoses (FIGS. 5F-G).

[2] = tested on: DNA damage (pH2AX); test: DNA damage by pH2AX staining in infected mice; format: in vivo; settings: infected mice with EtSA treatment; p<0.05
Procedure: (§1) As discussed further in the Examples, the human gastric epithelial cell line AGS was infected with Hp PMSS1±10 mM EtSA. FVB/N insulin-gastrin (INS-GAS) mice and Mongolian gerbils were infected for 8 wk with Hp PMSS1 and 7.13, respectively; EtSA (0.75% in water) was given to animals beginning one wk post-infection. Lys-LG adducts, a marker of electrophile reactions, and EtSA were quantified by LC/EST/MS/MS. Histology was analyzed on H&E staining. DNA damage was evaluated by pH2AX staining. Hp colonization was quantified by culture. Mucosal immune responses were determined by RNA profiling and by Luminex assay. Mice were imaged using PET/CT with ^18F-FDG (inflammation marker) and ^18F—NaF (tumor marker).

[3] = tested on: DNA-histone interaction (histone H4) in A549 cells; test: Salt fractionation of A549 nuclei, histone H4 solubility; format: cell-based, human; settings: A549, 500 μM EtSA 45 min prior to 20 μM AA
Procedure: FIG. 14. LG-lysyl adduct formation on histone H4 decreases DNA-histone interaction. A549 cells were stimulated and given DMSO vehicle (C lanes) or 20 μM AA for 1 h (A lanes). A subgroup of cells was treated with 500 μM EtSA 45 min prior to adding AA (E lanes). Nuclei were extracted with 0.6, 0.9, or 1.2 M NaCl buffer, and the supernatant evaluated by Western blotting for histone H4. Shown is a representative Western blot (A) as well as the pooled results of 4 experiments (B). Different exposure times may have been used for the 0.9 M and 1.2 M bands. ***, p<0.001 by one-way ANOVA followed by Tukey's multiple comparisons post-test. NS, not significant.
60-80% confluent A549 cells were stimulated and treated with AA±500 μM EtSA before scraping cells in lysis media for nuclear isolation as above. After addition of Tritox X-100 and vortexing, 1.5 mL of each sample was aliquoted into an eppendorf and centrifuged to separate nuclei. Pellets were washed with PBS and all buffer removed. Nuclear pellets were resuspended in extraction buffer containing 0.6M, 0.9M, 1.2M or 1.5M NaCl (with 10 mM Tris, pH 7.5, 3 mM MgCl2, 0.5% NP-40, and protease inhibitor cocktail) and incubated 10 min on ice. […] This was sonicated, denatured at 95° C., and analyzed by SDS-PAGE and Western blotting, using Ponceau stain to visualize proteins and confirm equal loading, and anti-H4 antibody (Abeam, Cambridge, Mass.). […]

[4] = tested on: INS-GAS mice infected with H. pylori; test: H. pylori-induced gastric dysplasia and carcinoma in INS-GAS mice; format: in vivo
Procedure: (§2) FIGS. 16A, 16B, 16C, 16D, 16E, and 16F show INS-GAS mice (8 per group) were infected or not with H. pylori strain PMS for 8 weeks and then treated with EtSA (7.5 mg/ml) one week after infection. (A) EtSA concentration in gastric tissues; **P<0.01, ****P<0.0001 vs. mice without EtSA. (B) Frequency of diagnoses. IMC, intramucosal carcinoma; LGD, low grade dysplasia; ND, no dysplasia. (C) Quantification of extent of dysplasia and cancer as a percentage of tissue sections. (D) H&E staining of INS-GAS mouse stomach tissues, showing carcinoma in an infected mouse; scale bar, 50 μm. In B and C, *P<0.05, **P<0.01 vs. infected mice.
as §1
The effect of a scavenger of levuglandins and other dicarbonyls was investigated in transgenic INS-GAS mice, which have high circulating gastrin levels and develop atrophic gastritis, and dysplasia and carcinoma with H. pylori infection. Mice were infected with H. pylori, and then EtSA was administered in drinking water, starting 7 days after infection. After 8 weeks, EtSA levels were measured in the gastric tissues of uninfected and infected mice receiving this compound (FIG. 16A). […] There was no dysplasia or carcinoma in uninfected mice (FIG. 16D).

[5] = EtSA in gastric tissues (LC/ESI/MS/MS); format: in vivo, INS-GAS mice; settings: EtSA in drinking water
Procedure: as §2
as §1, with “marker). […]” for “marker).”

[6] = EtHOBA concentration in the colon by LC/ESI/MS/MS; format: in vivo; settings: 1.5 and 3.7 mg/ml, after 6 days of treatment
Procedure: FIGS. 3A and 3B show data from C57BL/6 mice were treated or not with various concentrations of EtHOBA. (A) Body weight was assessed every day. (B) After 6 days, mice were euthanized and EtHOBA was measured in the colon. n=5 mice/group.
The present inventors analyzed the effect of various concentrations of EtHOBA and its bioavailability in control mice. […] After 6 days of treatment, EtHOBA concentrations in the colon were analyzed using liquid chromatography electrospray ionization tandem mass spectrometry (LC/EST/MS/MS).

[7] = AOM-DSS, 1.5 mg/ml EtHOBA vs AOM-DSS alone
[8] = H. pylori-infected INS-GAS mice treated with EtSA, 8 weeks, 37.5% without EtSA

CCc1ccc(O)c(CN)c1 [EtHOBA, 5-ethyl-2-hydroxybenzylamine]
mice with high grade dysplasia (HGD) ([1]; AOM-DSS + EtHOBA, without scavenger 25%): none
mice with only low-grade dysplasia (LGD) ([1]; AOM-DSS + EtHOBA, without scavenger 75%): 80%
mice with no dysplasia ([1]; AOM-DSS + EtHOBA, without scavenger all mice had dysplasia): 20%
Tumor number [1, 7]: significantly less tumors
body weight loss at each cycle of DSS [1, 7]: less weight loss
number of histologic adenomas [1, 7]: reduced number
total tumor burden [1, 7]: lower
tumor size [1, 7]: lower tumor size
body weight in control mice ([1]; control mice treated for 56 days, 1.5 mg/ml EtHOBA): no change in body weight
decrease of DNA damage [2]: 71%
elution of histone H4 at lower salt concentrations after AA [3]: reversed
development of carcinoma [4, 8]: 0%
development of dysplasia [4, 8]: 14.3%
extent of dysplasia and carcinoma ([4]; Hp-infected INS-GAS mice treated with EtSA, percentage of gastric mucosa): significantly attenuated; also recorded: decreases
frequency of intramucosal carcinoma ([4]; Hp-infected INS-GAS mice treated with EtSA, 69% without EtSA, p<0.05): 28%
EtSA bioavailability in the stomach [5]: bioavailable in the stomach
EtHOBA concentrations in the colon [6]: readily detected
